Results from US11807644B2 (PMV Pharmaceuticals, Inc., priority 2020, dated 2023).

Biological target: T1, recombinant His-tag Y220C p53 DBD protein (Homo sapiens, UniProt P04637, Y220C)
T1 construct: recombinant His-tag Y220C p53 DBD protein (amino acids #˜94-312)
Assay: In vitro DNA binding activity assay (TR-FRET): binding of His-tag Y220C p53 DBD to biotin-labeled consensus DNA
Assay type: biochemical
Settings: SC150 = concentration to increase DNA binding by […], His-tag Y220C p53 DBD, biotin-labeled consensus DNA

Row | Structure (SMILES) | Y220C SC150 (μM)
1 | COCCn1ccc(C(=O)NCc2nc(-c3cc4c(N[C@@H]5CCN(C)C[C@@H]5F)cccc4n3CC(F)(F)F)no2)c1 [Compound 198B, N-{[3-(4-{[(3S,4R)-3-fluoro-1-methylpiperidin-4-yl]amino}-1-(2,2,2-trifluoroethyl)-1H-indol-2-yl)-1,2,4-oxadiazol-5-yl]methyl}-1-(2-methoxyethyl)-1H-pyrrole-3-carboxamide] | * (* = 0 μM ≤ SC150 < 0.1 μM)
2 | CC(C)n1ccc(C(=O)NCc2nc(-c3cc4c(N[C@@H]5CCN(C)C[C@@H]5F)cccc4n3CC(F)(F)F)no2)c1 [Compound 199B, N-{[3-(4-{[(3S,4R)-3-fluoro-1-methylpiperidin-4-yl]amino}-1-(2,2,2-trifluoroethyl)-1H-indol-2-yl)-1,2,4-oxadiazol-5-yl]methyl}-1-(propan-2-yl)-1H-pyrrole-3-carboxamide] | * (* = 0 μM ≤ SC150 < 0.1 μM)
3 | CN1CC[C@@H](Nc2cccc3c2cc(-c2noc(CNC(=O)c4ccncc4)n2)n3CC(F)(F)F)[C@@H](F)C1 [Compound 200B, N-{[3-(4-{[(3S,4R)-3-fluoro-1-methylpiperidin-4-yl]amino}-1-(2,2,2-trifluoroethyl)-1H-indol-2-yl)-1,2,4-oxadiazol-5-yl]methyl}pyridine-4-carboxamide] | * (* = 0 μM ≤ SC150 < 0.1 μM)
4 | F[C@H]1CNCC[C@H]1Nc1cccc2c1cc(-c1noc(CNc3cn[nH]c3)n1)n2CC(F)(F)F [Compound 203B, N-[(3S,4R)-3-fluoropiperidin-4-yl]-2-(5-{[(1H-pyrazol-4-yl)amino]methyl}-1,2,4-oxadiazol-3-yl)-1-(2,2,2-trifluoroethyl)-1H-indol-4-amine] | * (* = 0 μM ≤ SC150 < 0.1 μM)
5 | CN1CC[C@@H](Nc2cccc3c2cc(-c2noc(CNC(=O)c4ccn(CCF)c4)n2)n3CC(F)(F)F)[C@@H](F)C1 [Compound 205B, N-{[3-(4-{[(3S,4R)-3-fluoro-1-methylpiperidin-4-yl]amino}-1-(2,2,2-trifluoroethyl)-1H-indol-2-yl)-1,2,4-oxadiazol-5-yl]methyl}-1-(2-fluoroethyl)-1H-pyrrole-3-carboxamide] | * (* = 0 μM ≤ SC150 < 0.1 μM)
6 | Cc1cc(C(=O)NCc2nc(-c3cc4c(N[C@@H]5CCN(C)C[C@@H]5F)cccc4n3CC(F)(F)F)no2)cs1 [Compound 208B, N-{[3-(4-{[(3S,4R)-3-fluoro-1-methylpiperidin-4-yl]amino}-1-(2,2,2-trifluoroethyl)-1H-indol-2-yl)-1,2,4-oxadiazol-5-yl]methyl}-5-methylthiophene-3-carboxamide] | * (* = 0 μM ≤ SC150 < 0.1 μM)
7 | Cc1cscc1C(=O)NCc1nc(-c2cc3c(N[C@@H]4CCN(C)C[C@@H]4F)cccc3n2CC(F)(F)F)no1 [Compound 209B, N-{[3-(4-{[(3S,4R)-3-fluoro-1-methylpiperidin-4-yl]amino}-1-(2,2,2-trifluoroethyl)-1H-indol-2-yl)-1,2,4-oxadiazol-5-yl]methyl}-4-methylthiophene-3-carboxamide] | * (* = 0 μM ≤ SC150 < 0.1 μM)
8 | Cc1sccc1C(=O)NCc1nc(-c2cc3c(N[C@@H]4CCN(C)C[C@@H]4F)cccc3n2CC(F)(F)F)no1 [Compound 211B, N-{[3-(4-{[(3S,4R)-3-fluoro-1-methylpiperidin-4-yl]amino}-1-(2,2,2-trifluoroethyl)-1H-indol-2-yl)-1,2,4-oxadiazol-5-yl]methyl}-2-methylthiophene-3-carboxamide] | * (* = 0 μM ≤ SC150 < 0.1 μM)
9 | CN1CC[C@@H](Nc2cccc3c2cc(-c2noc(CNC(=O)c4csc(Cl)c4)n2)n3CC(F)(F)F)[C@@H](F)C1 [Compound 213B, 5-chloro-N-{[3-(4-{[(3S,4R)-3-fluoro-1-methylpiperidin-4-yl]amino}-1-(2,2,2-trifluoroethyl)-1H-indol-2-yl)-1,2,4-oxadiazol-5-yl]methyl}thiophene-3-carboxamide] | * (* = 0 μM ≤ SC150 < 0.1 μM)
10 | F[C@H]1CNCC[C@H]1Nc1cccc2c1cc(-c1noc(CNc3ccn[nH]3)n1)n2CC(F)(F)F [Compound 214B, N-[(3S,4R)-3-fluoropiperidin-4-yl]-2-(5-{[(1H-pyrazol-5-yl)amino]methyl}-1,2,4-oxadiazol-3-yl)-1-(2,2,2-trifluoroethyl)-1H-indol-4-amine] | * (* = 0 μM ≤ SC150 < 0.1 μM)
11 | CN1CC[C@@H](Nc2cccc3c2cc(-c2noc(CNC(=O)c4ccsc4Cl)n2)n3CC(F)(F)F)[C@@H](F)C1 [Compound 215B, 2-chloro-N-{[3-(4-{[(3S,4R)-3-fluoro-1-methylpiperidin-4-yl]amino}-1-(2,2,2-trifluoroethyl)-1H-indol-2-yl)-1,2,4-oxadiazol-5-yl]methyl}thiophene-3-carboxamide] | * (* = 0 μM ≤ SC150 < 0.1 μM)
12 | CN1CC[C@@H](Nc2cccc3c2cc(-c2noc(CNC(=O)c4cn5ccccc5n4)n2)n3CC(F)(F)F)[C@@H](F)C1 [Compound 217B, N-{[3-(4-{[(3S,4R)-3-fluoro-1-methylpiperidin-4-yl]amino}-1-(2,2,2-trifluoroethyl)-1H-indol-2-yl)-1,2,4-oxadiazol-5-yl]methyl}imidazo[1,2-a]pyridine-2-carboxamide] | * (* = 0 μM ≤ SC150 < 0.1 μM)
13 | CN1CC[C@@H](Nc2cccc3c2cc(-c2noc(CNC(=O)c4ccn(C5CC5)c4)n2)n3CC(F)(F)F)[C@@H](F)C1 [Compound 218B, 1-cyclopropyl-N-{[3-(4-{[(3S,4R)-3-fluoro-1-methylpiperidin-4-yl]amino}-1-(2,2,2-trifluoroethyl)-1H-indol-2-yl)-1,2,4-oxadiazol-5-yl]methyl}-1H-pyrrole-3-carboxamide] | * (* = 0 μM ≤ SC150 < 0.1 μM)
14 | Cc1cc(C(=O)NCc2nc(-c3cc4c(N[C@@H]5CCN(C)C[C@@H]5F)cccc4n3CC(F)(F)F)no2)cn1C [Compound 219B, N-{[3-(4-{[(3S,4R)-3-fluoro-1-methylpiperidin-4-yl]amino}-1-(2,2,2-trifluoroethyl)-1H-indol-2-yl)-1,2,4-oxadiazol-5-yl]methyl}-1,5-dimethyl-1H-pyrrole-3-carboxamide] | * (* = 0 μM ≤ SC150 < 0.1 μM)

Now from value to compound:

Row | Y220C SC150 (μM) | Structure (SMILES)
15 | * (* = 0 μM ≤ SC150 < 0.1 μM) | CN1CC[C@@H](Nc2cccc3c2cc(-c2noc(CNC(=O)c4cc5ccccn5c4)n2)n3CC(F)(F)F)[C@@H](F)C1 [Compound 196B, N-{[3-(4-{[(3S,4R)-3-fluoro-1-methylpiperidin-4-yl]amino}-1-(2,2,2-trifluoroethyl)-1H-indol-2-yl)-1,2,4-oxadiazol-5-yl]methyl}indolizine-2-carboxamide]
16 | * (* = 0 μM ≤ SC150 < 0.1 μM) | CN1CC[C@@H](Nc2cccc3c2cc(-c2noc(CNC(=O)c4cn(-c5ccccc5)cn4)n2)n3CC(F)(F)F)[C@@H](F)C1 [Compound 197B, N-{[3-(4-{[(3S,4R)-3-fluoro-1-methylpiperidin-4-yl]amino}-1-(2,2,2-trifluoroethyl)-1H-indol-2-yl)-1,2,4-oxadiazol-5-yl]methyl}-1-phenyl-1H-imidazole-4-carboxamide]
17 | * (* = 0 μM ≤ SC150 < 0.1 μM) | CN1CC[C@@H](Nc2cccc3c2cc(-c2noc(CNC(=O)c4ccccn4)n2)n3CC(F)(F)F)[C@@H](F)C1 [Compound 201B, N-{[3-(4-{[(3S,4R)-3-fluoro-1-methylpiperidin-4-yl]amino}-1-(2,2,2-trifluoroethyl)-1H-indol-2-yl)-1,2,4-oxadiazol-5-yl]methyl}pyridine-2-carboxamide]
18 | * (* = 0 μM ≤ SC150 < 0.1 μM) | CN1CC[C@@H](Nc2cccc3c2cc(-c2noc(CNC(=O)c4cccnc4)n2)n3CC(F)(F)F)[C@@H](F)C1 [Compound 202B, N-{[3-(4-{[(3S,4R)-3-fluoro-1-methylpiperidin-4-yl]amino}-1-(2,2,2-trifluoroethyl)-1H-indol-2-yl)-1,2,4-oxadiazol-5-yl]methyl}pyridine-3-carboxamide]
19 | * (* = 0 μM ≤ SC150 < 0.1 μM) | CN1CC[C@@H](Nc2cccc3c2cc(-c2noc(CNC(=O)[C@H]4C[C@H]4c4ccccc4)n2)n3CC(F)(F)F)[C@@H](F)C1 [Compound 206B, (1S,2R)-N-{[3-(4-{[(3S,4R)-3-fluoro-1-methylpiperidin-4-yl]amino}-1-(2,2,2-trifluoroethyl)-1H-indol-2-yl)-1,2,4-oxadiazol-5-yl]methyl}-2-phenylcyclopropane-1-carboxamide]
20 | ** (** = 0.1 μM ≤ SC150 < 0.5 μM) | CN1CC[C@@H](Nc2cccc3c2cc(-c2noc(CNC(=O)[C@@H]4C[C@@H]4c4ccccc4)n2)n3CC(F)(F)F)[C@@H](F)C1 [Compound 207B, (1R,2S)-N-{[3-(4-{[(3S,4R)-3-fluoro-1-methylpiperidin-4-yl]amino}-1-(2,2,2-trifluoroethyl)-1H-indol-2-yl)-1,2,4-oxadiazol-5-yl]methyl}-2-phenylcyclopropane-1-carboxamide]
21 | * (* = 0 μM ≤ SC150 < 0.1 μM) | CN1CC[C@@H](Nc2cccc3c2cc(-c2noc(CNC(=O)[C@@H]4C[C@H]4c4ccc(F)cc4)n2)n3CC(F)(F)F)[C@@H](F)C1 [Compound 210B, (1R,2R)-N-{[3-(4-{[(3S,4R)-3-fluoro-1-methylpiperidin-4-yl]amino}-1-(2,2,2-trifluoroethyl)-1H-indol-2-yl)-1,2,4-oxadiazol-5-yl]methyl}-2-(4-fluorophenyl)cyclopropane-1-carboxamide]
22 | * (* = 0 μM ≤ SC150 < 0.1 μM) | CN1CC[C@@H](Nc2cccc3c2cc(-c2noc(CNC(=O)[C@H]4C[C@H](C)C4)n2)n3CC(F)(F)F)[C@@H](F)C1 [Compound 212B, (1s,3r)-N-{[3-(4-{[(3S,4R)-3-fluoro-1-methylpiperidin-4-yl]amino}-1-(2,2,2-trifluoroethyl)-1H-indol-2-yl)-1,2,4-oxadiazol-5-yl]methyl}-3-methylcyclobutane-1-carboxamide]
23 | * (* = 0 μM ≤ SC150 < 0.1 μM) | CN1CC[C@@H](Nc2cccc3c2cc(-c2noc(CNC(=O)c4cc5ccccn5n4)n2)n3CC(F)(F)F)[C@@H](F)C1 [Compound 216B, N-{[3-(4-{[(3S,4R)-3-fluoro-1-methylpiperidin-4-yl]amino}-1-(2,2,2-trifluoroethyl)-1H-indol-2-yl)-1,2,4-oxadiazol-5-yl]methyl}pyrazolo[1,5-a]pyridine-2-carboxamide]
